Columns and labels:
[1] = DIO mice, fasting glucose and fasting insulin after single dose, experiment #2 (Example 7); format: in vivo; conditions: experiment #2, day 2; PEG-OXM single SC 6000 nmol/kg; Liraglutide 200 μg/kg bid
Experimental: (§1) On the morning of day 1 the mice were dosed followed by an overnight fasting. On days 2, 24 h following administration (groups A-E) or prior to the morning dosing (groups F-H), the mice were sampled for fasting glucose and fasting insulin.
The second experiment included 7 groups (n=7) of DIO mice that were dosed for 2 days as follows: […]

[2] = DIO mice, fasting glucose and fasting insulin after single dose, experiment #1 (Example 7); format: in vivo; conditions: experiment #1, day 2
Experimental: as §1
In this set of experiments two independent in vivo studies were carried out. The first experiment included 8 groups (n=8) of DIO mice that were dosed for 2 days as follows: […]

[3] = DIO mouse model, 29 days dosing (Example 6): body weight; format: in vivo, C57BL/6J mice; conditions: SC 6,000 nmol/kg; PEG conjugates weekly, native OXM twice per day
[4] = IP glucose tolerance test (IPGTT); format: in vivo, C57BL/6 mice; conditions: OXM and PEG40-EMCS-OXM 333 nmol/kg 15 min before glucose, PEG40-Fmoc-OXM […] peptide content 2 hrs before, vs vehicle
Experimental: Blood glucose levels were measured by tail vein sampling prior to glucose administration and 10, 20, 30, 60 and 120 min after glucose administration using a handheld glucometer.
Blood glucose levels were measured by tail vein sampling prior to glucose administration and 10, 20, 30, 60 and 120 min after to glucose administration using a handheld glucometer.

[5] = biological target: CHO-K1 cells over-expressing GLP-1 receptor (Homo sapiens, UniProt P43220); conditions: rat serum 1%
Experimental: Cells cAMP concentrations were quantified by HTRF assay (Cisbio 62AM4PEB) and EC50 parameter was analyzed by PRISM software.
Cells' cAMP concentrations were quantified by HTRF assay (Cisbio 62AM4PEB), and the EC50 parameter was analyzed by PRISM software.

[6] = Diet-induced obesity mice model, Study 1: body weight and food intake; format: in vivo, C57BL/6J mice; conditions: SC, 7 days dosing, OXM 5000 nmol/kg b.i.d; for Body weight loss on Day 8 compared to control group: PEG40-FMS-OXM 5000 nmol/kg Days 1, 3, 5, 7, Sibutramine 20 mg/kg b.i.d
Experimental: Data are adjusted means (n=10). SEMs are calculated from the residuals of the statistical model. Mice were dosed for 7 days started on Day 1. […] Significant differences vs. appropriate vehicle: *p<0.05, **p<0.01, ***p<0.001. Percentage values indicate difference from appropriate vehicle group on Day 8 (i.e. after 7 days dosing).
Measurements of body weight and food intake were performed daily until Day 8. The final measurement of body weight was carried out on Day 12.
Body weight and food intake are expressed as mean values±SEM.

[7] = single SC 6,000 nmol/kg (OXM b.i.d)

CHO-K1 cells over-expressing GLP-1 receptor, sequence (P43220 24-463): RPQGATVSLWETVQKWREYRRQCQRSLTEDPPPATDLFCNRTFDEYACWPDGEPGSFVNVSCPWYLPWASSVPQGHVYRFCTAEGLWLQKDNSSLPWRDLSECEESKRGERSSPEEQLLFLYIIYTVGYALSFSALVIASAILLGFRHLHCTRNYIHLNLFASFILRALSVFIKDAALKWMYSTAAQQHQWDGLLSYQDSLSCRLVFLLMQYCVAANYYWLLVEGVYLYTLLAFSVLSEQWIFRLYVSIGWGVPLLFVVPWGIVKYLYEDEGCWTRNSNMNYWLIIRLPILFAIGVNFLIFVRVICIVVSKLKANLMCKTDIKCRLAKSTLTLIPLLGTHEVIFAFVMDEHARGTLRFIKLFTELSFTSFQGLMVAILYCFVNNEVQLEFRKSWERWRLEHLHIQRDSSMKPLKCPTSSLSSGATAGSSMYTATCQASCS

| Molecule | Fasted plasma insulin level [1] [ng/mL] | Fasting glucose level [1] [mM] | Fasting glucose level ([2]; PEG-OXM single SC 6,000 nmol/kg on day 1, Liraglutide 200 μg/kg b.i.d) [mM] | Fasted plasma insulin level ([2]; PEG-OXM single SC 6,000 nmol/kg, Liraglutide 200 μg/kg b.i.d) [ng/mL] | Weight loss during a 30-day period [3] [%] | Induction of glucose tolerance (blood glucose after IP glucose 1.5 gr/kg) [4] | cAMP activity after incubation in rat serum versus without serum [5] | Body weight loss on Day 8 compared to control group [6] [%] | Inhibition of food intake ([6]; PEG40-FMS-OXM 5000 nmol/kg every other day) | Fasting glucose compared to vehicle [2, 7] | Fasting plasma insulin compared to controls [2, 7] |
| --- | --- | --- | --- | --- | --- | --- | --- | --- | --- | --- | --- |
| CCCCCCCCCCCCCCCC(=O)N[C@@H](CCC(=O)NCCCC[C@H](NC(=O)[C@H](C)NC(=O)[C@H](C)NC(=O)[C@H](CCC(N)=O)NC(=O)CNC(=O)[C@H](CCC(=O)O)NC(=O)[C@H](CC(C)C)NC(=O)[C@H](Cc1ccc(O)cc1)NC(=O)[C@H](CO)NC(=O)[C@H](CO)NC(=O)[C@@H](NC(=O)[C@H](CC(=O)O)NC(=O)[C@H](CO)NC(=O)[C@@H](NC(=O)[C@H](Cc1ccccc1)NC(=O)[C@@H](NC(=O)CNC(=O)[C@H](CCC(=O)O)NC(=O)[C@H](C)NC(=O)[C@@H](N)Cc1cnc[nH]1)[C@@H](C)O)[C@@H](C)O)C(C)C)C(=O)N[C@@H](CCC(=O)O)C(=O)N[C@@H](Cc1ccccc1)C(=O)N[C@H](C(=O)N[C@@H](C)C(=O)N[C@@H](Cc1c[nH]c2ccccc12)C(=O)N[C@@H](CC(C)C)C(=O)N[C@H](C(=O)N[C@@H](CCCNC(=N)N)C(=O)NCC(=O)N[C@@H](CCCNC(=N)N)C(=O)NCC(=O)O)C(C)C)[C@@H](C)CC)C(=O)O [Liraglutide] | 3 | 6.7 | 6.06 | 4.4 |  |  |  |  |  |  |  |
| Oxyntomodulin [OXM] |  |  |  |  | 17 | minor effect on the glucose tolerance | reduced activity | 6 | statistically significant inhibition of food intake | did not show any significant difference | did not show any significant difference |
| CC(C)CC(N(C)C)C1(c2ccc(Cl)cc2)CCC1 (stereo not drawn) [Sibutramine] |  |  |  |  |  |  |  | 15.6 |  |  |  |
